Results published in US20240083857A1, “2-Methyl-Quinazolines” (Bayer Pharma Aktiengesellschaft, priority 2017, published 2024).

Molecular target: human SOS1 (loading of human K-Ras^G12C-GDP with fluorescent GTP-analog) (Homo sapiens, UniProt Q07889)
Assay: Biochemical assay 3: K-Ras^G12C activation assay by hSOS1 (HTRF)
Settings: read-out: Assay 3 (KRAS-Activation by SOS no GTP) activity expressed as % inhibition at 20 μM; no GTP; at 20 μM
From the text: Biochemical assay 3: K-Ras^G12C Activation Assay by hSOS1
K-Ras is a small GTPase that can bind GDP and GTP. The guanine nucleotide exchange factor SOS catalyzes the activation of K-Ras by promoting the exchange of GDP to GTP. SOS binds to K-Ras-GDP thereby opening the GDP-binding pocket to facilitate GDP release. Rebinding of excess nucleotide leads to dissociation of the K-Ras-SOS intermediate complex leaving K-Ras loaded with the nucleotide.
This assay quantifies human SOS1-mediated loading of human K-Ras^G12C-GDP with a fluorescent GTP-analog. Detection of successful loading is achieved by measuring homogenous time-resolved fluorescence resonance energy transfer (HTRF) from antiGST-Terbium (FRET donor) bound to GST-K-RasG12C to the loaded fluorescent GTP analog (FRET-acceptor).
The fluorescent GTP-analog EDA-GTP-Dy647P1 (2′/3′-O-(2-Aminoethyl-carbamoyl)-guanosine-5′-triphosphate labelled with Dy647P1 (Dyomics GmbH, Germany)) was synthesized by Jena Biosciences GmbH (Germany) and supplied as a 1 mM aqueous solution.
The assay buffer contained 10 mM HEPES pH 7.4 (Applichem), 150 mM NaCl (Sigma), 5 mM MgCl2 (Sigma), 1 mM DTT (Thermofisher), 0.05% BSA Fraction V, pH 7.0, (ICN Biomedicals), 0.0025% (v/v) Igepal (Sigma).
Concentrations of protein batches used were optimized to be within the linear range of the HTRF signal. A Ras working solution was prepared in assay buffer containing typically 100 nM GST-hK-RasG12C and 2 nM antiGST-Tb (Cisbio, France). A hSOS1 working solution was prepared in assay buffer containing typically 20 nM hSOS1 and 200 nM EDA-GTP-Dy647P1. An inhibitor control solution was prepared in assay buffer containing 200 nM EDA-GTP-Dy647P1 without hSOS1.
Fifty nl of a 100-fold concentrated solution of the test compound in DMSO were transferred into a black microtiter test plate (384 or 1536, Greiner Bio-One, Germany). For this, either a Hummingbird liquid handler (Digilab, MA, USA) or an Echo acoustic system (Labcyte, CA, USA) was used.
All steps of the assay were performed at 20° C. A volume of 2.5 μl of the Ras working solution was added to all wells of the test plate using a Multidrop dispenser (Thermo Labsystems). After 10 min preincubation, 2.5 μl of the hSOS1 working solution were added to all wells except for those wells at the side of the test plate that were subsequently filled with 2.5 μl of the inhibitor control solution. After 30 min incubation the fluorescence was measured with a Pherastar (BMG, Germany) using the HTRF module (excitation 337 nm, emission 1: 620 nm, emission 2: 665 nm).
IC50 values were calculated by 4-Parameter fitting using a commercial software package (Genedata Screener, Switzerland).

Row | Structure (SMILES) | inhibition at 20 µM [%]
1 | COc1cc2nc(C)nc(N[C@@H](C)c3ccc(-c4cncnc4)s3)c2cc1OC (stereo in doubt) [Example 42, 6,7-dimethoxy-2-methyl-N-{1-[5-(pyrimidin-5-yl)thiophen-2-yl]ethyl}quinazolin-4-amine] | 48
2 | COCc1ccccc1-c1ccc([C@H](C)Nc2nc(C)nc3cc(OC)c(OC)cc23)s1 (stereo in doubt) [Example 50, 6,7-dimethoxy-N-[1-{5-[2-(methoxymethyl)phenyl]thiophen-2-yl}ethyl]-2-methylquinazolin-4-amine] | 23
3 | COc1cc2nc(C)nc(N[C@@H](C)c3ccc(-c4cccc(C(=O)N(C)C)c4)s3)c2cc1OC (stereo in doubt) [Example 51, 3-(5-{1-[(6,7-dimethoxy-2-methylquinazolin-4-yl)amino]ethyl}thiophen-2-yl)-N,N-dimethylbenzamide] | 52
4 | COc1cc2nc(C)nc(N[C@@H](C)c3ccc(-c4ccc(CO)s4)s3)c2cc1OC (stereo in doubt) [Example 52, (5′-{1-[(6,7-dimethoxy-2-methylquinazolin-4-yl)amino]ethyl}-2,2′-bithiophen-5-yl)methanol] | 43
5 | COc1cc2nc(C)nc(N[C@@H](C)c3ccc(-c4ccc(-c5nnc(C)o5)cc4)s3)c2cc1OC (stereo in doubt) [Example 128, 6,7-dimethoxy-2-methyl-N-[1-{5-[4-(5-methyl-1,3,4-oxadiazol-2-yl)phenyl]thiophen-2-yl}ethyl]quinazolin-4-amine] | 16
6 | COc1cc2nc(C)nc(N[C@@H](C)c3ccc(-c4ccc(CNC(C)=O)cc4)s3)c2cc1OC (stereo in doubt) [Example 138, N-[4-(5-{1-[(6,7-dimethoxy-2-methylquinazolin-4-yl)amino]ethyl}thiophen-2-yl)benzyl)acetamide] | 40
7 | COc1cc2nc(C)nc(N[C@@H](C)c3ccc(-c4cccc(CNS(C)(=O)=O)c4)s3)c2cc1OC (stereo in doubt) [Example 139, N-[3-(5-{1-[(6,7-dimethoxy-2-methylquinazolin-4-yl)amino]ethyl}thiophen-2-yl)benzyl]methanesulfonamide] | 41
8 | COc1cc2nc(C)nc(N[C@@H](C)c3ccc(-c4ccc(CNS(C)(=O)=O)cc4)s3)c2cc1OC (stereo in doubt) [Example 140, N-[4-(5-{1-[(6,7-dimethoxy-2-methylquinazolin-4-yl)amino]ethyl}thiophen-2-yl)benzyl]methanesulfonamide] | 33
9 | COc1cc2nc(C)nc(N[C@@H](C)c3ccc(-c4ccc(S(C)(=O)=O)cc4)s3)c2cc1OC (stereo in doubt) [Example 149, 6,7-dimethoxy-2-methyl-N-[1-{5-[4-(methylsulfonyl)phenyl]thiophen-2-yl}ethyl]quinazolin-4-amine] | 17
10 | COc1cc2nc(C)nc(N[C@@H](C)c3ccc(-c4cccc(NS(C)(=O)=O)c4)s3)c2cc1OC (stereo in doubt) [Example 165, N-[3-(5-{1-[(6,7-dimethoxy-2-methylquinazolin-4-yl)amino]ethyl}thiophen-2-yl)phenyl]methanesulfonamide] | 32
11 | COc1cc2nc(C)nc(N[C@@H](C)c3ccc(-c4cccc(S(C)(=O)=O)c4)s3)c2cc1OC (stereo in doubt) [Example 173, 6,7-dimethoxy-2-methyl-N-[1-{5-[3-(methylsulfonyl)phenyl]thiophen-2-yl}ethyl]quinazolin-4-amine] | 48
12 | COc1cc2nc(C)nc(N[C@@H](C)c3ccc(-c4ccc(C(=O)N(C)C)cc4)s3)c2cc1OC (stereo in doubt) [Example 176, 4-(5-{1-[(6,7-dimethoxy-2-methylquinazolin-4-yl)amino]ethyl}thiophen-2-yl)-N,N-dimethylbenzamide] | 42
